Results from ChEMBL document CHEMBL6096732 (J Med Chem, 2025).
Calls of active or inactive are those of the source. The calls are words filed in the database; no cut-off is given here.

Assays:
Histone deacetylase 3 = Histone deacetylase 3 (Homo sapiens, UniProt O15379); assay: Inhibition of recombinant HDAC3 (unknown origin) using Boc-Lys(acetyl)-AMC as substrate preincubated for 1 hr followed by substrate addition and measured after 2 hrs by fluorescence based micro plate reader analysis
[1] = Ratio of AUC (0 to t) to AUC (0 to infinity) in male Sprague-Dawley rat at 20 mg/kg, po measured after 12 hrs by LC-MS/MS analysis; format: ADME, organism-based; conditions: in vivo
B16-F10 [2] = assay: cells; format: functional, cell-based; conditions: Mus musculus, B16-F10, 72 h
Description: Antiproliferative activity against mouse B16-F10 cells assessed as inhibition of cell growth incubated for 72 hrs by MTT assay

B16-F10 [3] = assay: Inhibition of cell migration in mouse B16-F10 cells incubated for 24 to 48 hrs by crystal violet staining based microscopic analysis; format: functional; conditions: dose 5-20 µM, time 24-48 hrs
B16-F10 [4] = assay: Inhibition of cell migration in mouse B16-F10 cells assessed as wound area at 10 uM incubated for 24 hrs by wound healing assay (reference value: 50.36 +/- 1.68 %); format: functional; set-up: scale not given: the % may be the effect or the level left
[5] = biological target: Programmed cell death 1 ligand 1 (Mus musculus) (UniProt Q9EP73); assay: Induction of PD-L1 degradation in mouse B16-F10 cells assessed as decrease in PD-L1 protein level by measuring maximal efficacy at 10 uM incubated for 24 hrs by Western blot analysis relative to control; format: cell-based
[6] = biological target: Programmed cell death 1 ligand 1 (Mus musculus) (UniProt Q9EP73); assay: Induction of PD-L1 degradation in mouse B16-F10 cells assessed as decrease in PD-L1 protein level at 5 uM incubated for 24 hrs by DAPI staining based immunofluorescence analysis; format: cell-based
4T1 [7] = assay: Downregulation of PARP1 expression in mouse 4T1 cells at 2 uM incubated for 24 hrs in presence of olaparib by Western blot analysis; format: functional, cell-based
B16-F10 [8] = assay: Induction of DNA damage in mouse B16-F10 cells assessed as increase in gamma-H2AX expression at 2 uM incubated for 24 hrs by Western blot analysis; format: functional, cell-based
4T1 [9] = assay: Induction of DNA damage in mouse 4T1 cells assessed as increase in gamma-H2AX expression at 2 uM incubated for 24 hrs by Western blot analysis; format: functional, cell-based
[10] = Retention time of compound by HPLC analysis; format: physicochemical
[11] = AUC (0 to infinity) in male Sprague-Dawley rat at 2 mg/kg, iv measured after 12 hrs by LC-MS/MS analysis; format: ADME, organism-based; conditions: in vivo
[12] = AUMC (0 to t) in male Sprague-Dawley rat at 2 mg/kg, iv measured after 12 hrs by LC-MS/MS analysis; format: ADME, organism-based; conditions: in vivo
[13] = AUMC (0 to infinity) in male Sprague-Dawley rat at 2 mg/kg, iv measured after 12 hrs by LC-MS/MS analysis; format: ADME, organism-based; conditions: in vivo
[14] = AUMC (0 to infinity) in male Sprague-Dawley rat at 20 mg/kg, po measured after 12 hrs by LC-MS/MS analysis; format: ADME, organism-based; conditions: in vivo
[15] = MRT (0 to t) in male Sprague-Dawley rat at 20 mg/kg, po measured after 12 hrs by LC-MS/MS analysis; format: ADME, organism-based; conditions: in vivo
[16] = Clast in male Sprague-Dawley rat at 20 mg/kg, po measured after 12 hrs by LC-MS/MS analysis; format: ADME, organism-based; conditions: in vivo, read-out: Clast
[17] = Apparent volume of distribution in male Sprague-Dawley rat at 20 mg/kg, po measured after 12 hrs by LC-MS/MS analysis; format: ADME, organism-based; conditions: in vivo
[18] = Toxicity in male C57BL/6 mouse implanted with mouse B16-F10 cells assessed as histopathological changes in liver at 50 mg/kg, po co-administered with NP-19 as once daily dosage via gavage for 14 days by HandE staining based microscopic analysis; format: organism-based; conditions: in vivo, 336 h, time 14 day
Mus musculus [19] = assay: In vivo induction of PD-L1 degradation in male C57BL/6 mouse model implanted with mouse B16-F10 cells assessed as decrease in PD-L1 protein expression in tumor at 50 mg/kg, po administered once daily via gavage for 14 days by Western blot analysis; format: functional, organism-based; conditions: time 14.0 day
Mus musculus [20] = assay: In vivo induction of PD-L1 degradation in male C57BL/6 mouse model implanted with mouse B16-F10 cells assessed as decrease in PD-L1 protein expression in tumor at 50 mg/kg, po co-administered with NP-19 as once daily dosage via gavage for 14 days by DAPI staining based immunofluorescence analysis; format: functional, organism-based; conditions: time 14.0 day
[21] = Toxicity in female BALB/c mouse model implanted with mouse 4T1 cells assessed as effect on body weight administrated orally as once daily dose via gavage for 14 days; conditions: in vivo, po, 336 h, time 14 day
4T1 [22] = assay: Antitumor activity against mouse 4T1 cells implanted in female BALB/c mouse model assessed as decrease in PAPR1 expression in tumor administrated orally as once daily dose via gavage for 14 days by Western blot analysis; format: functional, cell-based; conditions: route po, time 14.0 day
4T1 [23] = assay: Antitumor activity against mouse 4T1 cells implanted in female BALB/c mouse model assessed as induction of DNA damage by measuring increase in gamma-H2AX expression in tumor administrated orally as once daily dose via gavage for 14 days by Western blot analysis; format: functional, cell-based; conditions: route po, time 14.0 day
4T1 [24] = assay: Antitumor activity against mouse 4T1 cells implanted in female BALB/c mouse model assessed as induction of DNA damage by measuring increase in gamma-H2AX expression in tumor administrated orally as once daily dose via gavage for 14 days by DAPI staining based immunofluorescence analysis; format: functional, cell-based; conditions: route po, time 14.0 day
4T1 [25] = assay: Antitumor activity against mouse 4T1 cells implanted in female BALB/c mouse model assessed as decrease in PAPR1 fluorescence intensity in tumor co-administrated orally with olaparib as once daily dose via gavage for 14 days by DAPI staining based immunofluorescence analysis; format: functional, cell-based; conditions: route po, time 14.0 day

Programmed cell death 1 ligand 1 (Mus musculus), sequence (Q9EP73 whole entry): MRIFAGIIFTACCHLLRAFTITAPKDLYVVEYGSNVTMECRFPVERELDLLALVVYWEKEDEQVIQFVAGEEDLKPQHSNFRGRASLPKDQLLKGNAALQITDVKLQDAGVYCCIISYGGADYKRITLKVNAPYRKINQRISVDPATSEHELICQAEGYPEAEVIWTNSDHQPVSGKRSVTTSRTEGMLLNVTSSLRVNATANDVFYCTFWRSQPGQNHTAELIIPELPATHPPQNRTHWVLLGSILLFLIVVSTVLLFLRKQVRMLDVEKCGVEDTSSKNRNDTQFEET
Histone deacetylase 3, sequence (O15379 whole entry): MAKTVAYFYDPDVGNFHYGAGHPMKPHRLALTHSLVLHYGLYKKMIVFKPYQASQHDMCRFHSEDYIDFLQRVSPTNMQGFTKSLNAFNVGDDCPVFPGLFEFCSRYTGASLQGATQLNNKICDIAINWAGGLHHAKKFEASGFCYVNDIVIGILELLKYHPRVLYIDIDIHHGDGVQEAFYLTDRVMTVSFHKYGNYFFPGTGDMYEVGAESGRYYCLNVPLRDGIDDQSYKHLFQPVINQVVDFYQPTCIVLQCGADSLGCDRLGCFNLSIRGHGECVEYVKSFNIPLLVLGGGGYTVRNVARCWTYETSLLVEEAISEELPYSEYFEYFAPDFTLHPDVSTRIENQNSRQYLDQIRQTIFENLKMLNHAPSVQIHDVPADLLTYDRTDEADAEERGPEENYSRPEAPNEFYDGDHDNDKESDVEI

IC50 (Histone deacetylase 3): 42 nM
Ratio AUC [1]: 96.65%
IC50 (B16-F10 [2]): 5560 nM
Retention_time [10]: 10.16 min
AUC(0-inf) [11]: 857 ng·h/mL
AUMCt [12]: 626.686 hr.hr.ug/L
AUMC [13]: 630.022 hr.hr.ug/L
AUMC [14]: 39983.874 hr.hr.ug/L
MRT last at 12 h [15]: 4.43 h
concentration at 12 h [16]: 106 ng/mL
Vz [17]: 7.322 L/kg
SMILES: CCCNNC(=O)c1ccc(Cn2c3ccccc3c3c(-c4ccccn4)nc4ccccc4c32)cc1
inhibition (B16-F10 [3]): Dose-dependent-effect
Activity (B16-F10 [4]): 10.25%
Emax [5]: 85%
Activity [6]: Active
Activity (4T1 [7]): Active
Activity (B16-F10 [8]): Active
Activity (4T1 [9]): Active
Activity [18]: Non-toxic
Activity (Mus musculus [19]): Active
Activity (Mus musculus [20]): Active
Activity [21]: Non-toxic
Activity (4T1 [22]): Active
Activity (4T1 [23]): Active
Activity (4T1 [24]): Active; Comparable To The Effect Of Olaparib
Activity (4T1 [25]): Active
